These results are taken from patent US10329309B2, “3-(3H-imidazo[4,5-B]pyridin-2-yl)-1H-pyrazolo[4,3-B]pyridines and therapeutic uses thereof” (Samumed, LLC, priority 2015, dated 2019).

Common to all, as to assay type: cell-based
One assay concerns SW480 colon cancer cells. Put plainly: Cell viability assay (CellTiter-Blue), four days. To be noted: Homo sapiens, 96 h; for EC50: CellTiter-Blue cell viability; for inhibition at 10 µM: read-out: percent inhibition at 10 μM (given for EC50 of >10 μM). In outline: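 Resazurin reduction (Ex 560/Em 590 nm, ~3 h reagent incubation) served as the viability read-out after SW480 cells were treated for four days at 37 °C. Doses ran from 10 μM down to 0.0045 μM in eight 1:3 steps. Curves fitted non-linearly for EC50, else % inhibition at 10 μM reported.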
Background: Resazurin is reduced to fluorescent resorufin, in cell work by metabolically active cells.

Assay [1] deals with primary human fibroblasts derived from IPF patients (LL29 cells), α-smooth muscle actin (αSMA). Put plainly: Inhibition of the fibrotic process: TGF-β1-treated primary human fibroblasts from IPF patients, αSMA staining. The settings on record: Fibroblast, 96 h, 4 days; for EC50: LL29 fibroblasts from IPF patients, TGF-β1 20 ng/mL, inhibition of fibrotic process; for inhibition at 10 µM: LL29 fibroblasts, TGF-β1 treated, read-out: percent inhibition at 10 μM (given for EC50 of >10 μM). An outline of the steps:
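EC50 values come from non-linear fits of the αSMA-positive percentage among SYTOX-excluded live cells, normalized to TGF-β1 plus DMSO controls, or appear as % inhibition at 10 μM when above 10 μM. Fibrosis was induced in IPF-derived LL29 fibroblasts by 20 ng/mL TGF-β1 over 4 days, with 1:2 compound dilutions from 10 μM.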

Another assay has as its system IL-6 (THP-1 cells). Put plainly: Inhibition of IL-6 in LPS-stimulated THP-1 monocytes (HTRF). The settings on record: Homo sapiens; for EC50: LPS 500 ng/mL, IL-6 by HTRF; for inhibition at 10 µM: LPS stimulated, IL-6, at 10 μM, read-out: percent inhibition at 10 μM (given for EC50 of >10 μM). In outline: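 IL-6 release was read as the HTRF 665/620 nm ratio after 22 h of 500 ng/mL LPS at 37 °C. Before stimulation, THP-1 cells kept 24 h in 1% FBS were exposed 2 h to a 10-point 1:3 compound series starting at 10 μM, in 0.1% DMSO. Four-parameter EC50s came from DMSO-normalized duplicates, with % inhibition at 10 μM reported beyond 10 μM.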
(TR-FRET usually uses a lanthanide donor and a delayed reading to cut background.)

The structures appear in SMILES notation.

As usually defined, the EC50 is the concentration at which the effect is half-maximal. Lower therefore signals a more potent agent. By inhibition is commonly meant the relative decrease from the control value, in per cent.

As to `Cc1ccncc1-c1ccc2[nH]nc(-c3nc4c(-c5ccncc5)ccnc4[nH]3)c2n1` [Compound 117, 5-(4-methylpyridin-3-yl)-3-(7-(pyridin-4-yl)-3H-imidazo[4,5-b]pyridin-2-yl)-1H-pyrazolo[4,3-b]pyridine], the EC50 (in the assay on SW480 colon cancer cells; in assay [1]; with IL-6 (THP-1 cells)) was more than 10 µM in each case. The inhibition at 10 µM in the assay with SW480 colon cancer cells came out at 1.7%; in assay [1] it was 2.8%; in the assay with IL-6 (THP-1 cells), 18.6%.

`O=C(Cc1ccccc1)Nc1cncc(-c2ccc3[nH]nc(-c4nc5c(-c6ccncc6)ccnc5[nH]4)c3n2)c1` [Compound 122, 2-phenyl-N-(5-(3-(7-(pyridin-4-yl)-3H-imidazo[4,5-b]pyridin-2-yl)-1H-pyrazolo[4,3-b]pyridin-5-yl)pyridin-3-yl)acetamide]: the EC50 (in the assay with SW480 colon cancer cells; in assay [1]; with IL-6 (THP-1 cells)) was more than 10 µM each time. Besides, the inhibition at 10 µM with SW480 colon cancer cells was determined as 4.4%; in assay [1], 0%; in the assay on IL-6 (THP-1 cells) it was 27%.

As to `CCCC(=O)Nc1cncc(-c2ccc3[nH]nc(-c4nc5c(-c6ccncc6)ccnc5[nH]4)c3n2)c1` [Compound 129, N-(5-(3-(7-(pyridin-4-yl)-3H-imidazo[4,5-b]pyridin-2-yl)-1H-pyrazolo[4,3-b]pyridin-5-yl)pyridin-3-yl)butyramide], the EC50 (in the assay with SW480 colon cancer cells; in assay [1]; with IL-6 (THP-1 cells)) was more than 10 µM throughout. The inhibition at 10 µM stood at 5.7% with SW480 colon cancer cells, 0% in assay [1] and 14.9% with IL-6 (THP-1 cells).

Regarding `c1cc(-c2ccc3[nH]nc(-c4nc5c(-c6ccncc6)ccnc5[nH]4)c3n2)ccn1` [Compound 130, 5-(pyridin-4-yl)-3-(7-(pyridin-4-yl)-3H-imidazo[4,5-b]pyridin-2-yl)-1H-pyrazolo [4,3-b]pyridine], the EC50 (in the assay with SW480 colon cancer cells; in assay [1]; with IL-6 (THP-1 cells)) was more than 10 µM throughout. For the same molecule, the inhibition at 10 µM in the assay on SW480 colon cancer cells was determined as 0%; in assay [1] it was 39.3%; with IL-6 (THP-1 cells), 18.9%.

Turning to `O=C(Nc1cncc(-c2ccc3[nH]nc(-c4nc5c(-c6ccncc6)ccnc5[nH]4)c3n2)c1)C1CCCCC1` [Compound 135, N-(5-(3-(7-(pyridin-4-yl)-3H-imidazo[4,5-b]pyridin-2-yl)-1H-pyrazolo[4,3-b]pyridin-5-yl)pyridin-3-yl)cyclohexanecarboxamide], the figures for the EC50 (in the assay with SW480 colon cancer cells; in assay [1]; in the assay on IL-6 (THP-1 cells)) were more than 10 µM, more than 10 µM and more than 1 µM, respectively. Besides, the figures for the inhibition at 10 µM (with SW480 colon cancer cells; in assay [1]; in the assay with IL-6 (THP-1 cells)) were 3.8%, 0% and 22.1%, respectively.

In the case of `CCNCc1cncc(-c2ccc3[nH]nc(-c4nc5c(-c6ccccn6)ccnc5[nH]4)c3n2)c1` [Compound 146, N-((5-(3-(7-(pyridin-2-yl)-3H-imidazo[4,5-b]pyridin-2-yl)-1H-pyrazolo[4,3-b]pyridin-5-yl)pyridin-3-yl)methyl)ethanamine], the EC50 with SW480 colon cancer cells was more than 10 µM; in assay [1] it was 1.13 µM; in the assay on IL-6 (THP-1 cells), more than 10 µM. Moreover, the inhibition at 10 µM worked out at 23.3% in the assay with SW480 colon cancer cells and 4.5% in the assay on IL-6 (THP-1 cells).

As for `O=C(Nc1cncc(-c2ccc3[nH]nc(-c4nc5c(-c6ccccn6)ccnc5[nH]4)c3n2)c1)c1ccccc1` [Compound 151, N-(5-(3-(7-(Pyridin-2-yl)-3H-imidazo[4,5-b]pyridin-2-yl)-1H-pyrazolo[4,3-b]pyridin-5-yl)pyridin-3-yl)benzamide], the EC50 (with SW480 colon cancer cells; in assay [1]; with IL-6 (THP-1 cells)) was more than 10 µM throughout. The inhibition at 10 µM turned out to be 2.7% in the assay on SW480 colon cancer cells, 0% in assay [1] and 39.1% with IL-6 (THP-1 cells).

For the molecule `CCCCC(=O)Nc1cncc(-c2ccc3[nH]nc(-c4nc5c(-c6ccccn6)ccnc5[nH]4)c3n2)c1` [Compound 159, N-(5-(3-(7-(pyridin-2-yl)-3H-imidazo[4,5-b]pyridin-2-yl)-1H-pyrazolo[4,3-b]pyridin-5-yl)pyridin-3-yl)pentanamide], the EC50 (in the assay with SW480 colon cancer cells; in assay [1]; in the assay on IL-6 (THP-1 cells)) was more than 10 µM in each case. The values for the inhibition at 10 µM (with SW480 colon cancer cells; in assay [1]; in the assay with IL-6 (THP-1 cells)) were 6.7%, 15.4% and 33.6%, respectively.

Take `CCC(=O)Nc1cncc(-c2ccc3[nH]nc(-c4nc5c(N6CCCCC6)ccnc5[nH]4)c3n2)c1` [Compound 169, N-(5-(3-(7-(piperidin-1-yl)-3H-imidazo[4,5-b]pyridin-2-yl)-1H-pyrazolo[4,3-b]pyridin-5-yl)pyridin-3-yl)propionamide]: the EC50 is 4.65 µM in the assay on SW480 colon cancer cells, 5.3 µM in assay [1] and more than 10 µM with IL-6 (THP-1 cells). Also, the inhibition at 10 µM with IL-6 (THP-1 cells) is 12.7%.

For `CN(C)c1cncc(-c2ccc3[nH]nc(-c4nc5c(N6CCCCC6)ccnc5[nH]4)c3n2)c1` [Compound 175, N,N-dimethyl-5-(3-(7-(piperidin-1-yl)-3H-imidazo[4,5-b]pyridin-2-yl)-1H-pyrazolo [4,3-b]pyridin-5-yl)pyridin-3-amine], the values for the EC50 (with SW480 colon cancer cells; in assay [1]; in the assay on IL-6 (THP-1 cells)) were more than 10 µM, 2.53 µM and more than 10 µM, respectively. Further, the inhibition at 10 µM amounted to 13.6% in the assay with SW480 colon cancer cells and 27.6% in the assay with IL-6 (THP-1 cells).

In the case of `CN(C)Cc1cncc(-c2ccc3[nH]nc(-c4nc5c(N6CCCCC6)ccnc5[nH]4)c3n2)c1` [Compound 181, N,N-dimethyl-1-(5-(3-(7-(piperidin-1-yl)-3H-imidazo[4,5-b]pyridin-2-yl)-1H-pyrazolo[4,3-b]pyridin-5-yl)pyridin-3-yl)methanamine], the EC50 turned out to be 5.55 µM in the assay with SW480 colon cancer cells, 1.36 µM in assay [1] and 8.3 µM in the assay on IL-6 (THP-1 cells).

Turning to `Cc1cn(-c2ccnc3[nH]c(-c4n[nH]c5ccc(-c6cncc(NC(=O)CC(C)C)c6)nc45)nc23)cn1` [Compound 198, 3-methyl-N-(5-(3-(7-(4-methyl-1H-imidazol-1-yl)-3H-imidazo[4,5-b]pyridin-2-yl)-1H-pyrazolo[4,3-b]pyridin-5-yl)pyridin-3-yl)butanamide], the EC50 (in the assay on SW480 colon cancer cells; in assay [1]; in the assay with IL-6 (THP-1 cells)) was more than 10 µM throughout. For the same molecule, the inhibition at 10 µM is 46% in the assay on SW480 colon cancer cells, 0% in assay [1] and 29.1% in the assay with IL-6 (THP-1 cells).

In the case of `Cc1cn(-c2ccnc3[nH]c(-c4n[nH]c5ccc(-c6cncc(NC(=O)C(C)(C)C)c6)nc45)nc23)cn1` [Compound 204, N-(5-(3-(7-(4-methyl-1H-imidazol-1-yl)-3H-imidazo[4,5-b]pyridin-2-yl)-1H-pyrazolo[4,3-b]pyridin-5-yl)pyridin-3-yl)pivalamide], the EC50 (with SW480 colon cancer cells; in assay [1]; in the assay with IL-6 (THP-1 cells)) was more than 10 µM throughout. For the same molecule, the inhibition at 10 µM in the assay with SW480 colon cancer cells was 0%; in assay [1], 38.8%; in the assay on IL-6 (THP-1 cells) it was 36.3%.

As for `Cc1cn(-c2ccnc3[nH]c(-c4n[nH]c5ccc(-c6cncc(CN7CCCC7)c6)nc45)nc23)cn1` [Compound 210, 3-(7-(4-methyl-1H-imidazol-1-yl)-3H-imidazo[4,5-b]pyridin-2-yl)-5-(5-(pyrrolidin-1-ylmethyl)pyridin-3-yl)-1H-pyrazolo[4,3-b]pyridine], the EC50 with SW480 colon cancer cells was more than 10 µM; in assay [1], 6.74 µM; in the assay with IL-6 (THP-1 cells), more than 10 µM. The inhibition at 10 µM was found to be 12.6% with SW480 colon cancer cells and 21.7% with IL-6 (THP-1 cells).

As to `Cc1cn(-c2ccnc3[nH]c(-c4n[nH]c5ccc(-c6cncc(NC(=O)C7CCC7)c6)nc45)nc23)cn1` [Compound 217, N-(5-(3-(7-(4-methyl-1H-imidazol-1-yl)-3H-imidazo[4,5-b]pyridin-2-yl)-1H-pyrazolo[4,3-b]pyridin-5-yl)pyridin-3-yl)cyclobutanecarboxamide], the EC50 with SW480 colon cancer cells is more than 10 µM; in assay [1] it was 6.1 µM; in the assay with IL-6 (THP-1 cells) it was more than 10 µM. Moreover, the inhibition at 10 µM in the assay on SW480 colon cancer cells was determined as 2.1%; in the assay on IL-6 (THP-1 cells), 35.6%.

Take `CN1CCN(c2ccnc3[nH]c(-c4n[nH]c5ccc(-c6cncc(N)c6)nc45)nc23)CC1` [Compound 227, 5-(3-(7-(4-methylpiperazin-1-yl)-3H-imidazo[4,5-b]pyridin-2-yl)-1H-pyrazolo[4,3-b]pyridin-5-yl)pyridin-3-amine]: the EC50 (with SW480 colon cancer cells; in assay [1]; in the assay with IL-6 (THP-1 cells)) was more than 10 µM throughout. In addition, the inhibition at 10 µM with SW480 colon cancer cells came out at 0%; in assay [1], 32.8%; in the assay with IL-6 (THP-1 cells), 51.9%.
